From PubChem BioAssay AID1845212 (Molecular Pharmacology Branch, DTP, NCI, 2023)

System: NCI-H719 tumor spheroids, viability
Experiment: Anticancer human tumor NCI-H719 cell line growth inhibition;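 also: spheroids exposed to compounds for seven days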;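 as to viability, T/C: percent viability relative to DMSO vehicle control as 100%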
Settings: spheroids with HUVEC and MSC; for IC50: curve of first compound; for viability, T/C: stronger effect = lower value
How it was run: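 Complex tumor spheroids combined malignant cells with endothelial cells and mesenchymal stem cells. DNA-damaging drugs and DNA repair inhibitors were tested alone and in combination, at half-log dilutions down from clinical Cmax (top 10 microM if Cmax unknown), 0.25% DMSO final.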

[1] = second compound 30 pM, first compound 0.0316 µM
[2] = second compound 30 pM, first compound 0.1 µM
[3] = second compound 30 pM, first compound 0.316 µM
[4] = second compound 30 pM, first compound 1 µM
[5] = second compound 30 pM, first compound 3.16 µM
[6] = second compound 30 pM, first compound 10 µM
[7] = second compound 94.9 pM, first compound 0.0316 µM
[8] = second compound 94.9 pM, first compound 0.1 µM
[9] = second compound 94.9 pM, first compound 0.316 µM
[10] = second compound 94.9 pM, first compound 1 µM
[11] = second compound 94.9 pM, first compound 3.16 µM
[12] = second compound 94.9 pM, first compound 10 µM
[13] = second compound 0.0003 µM, first compound 0.0316 µM
[14] = second compound 0.0003 µM, first compound 0.1 µM
[15] = second compound 0.0003 µM, first compound 0.316 µM
[16] = second compound 0.0003 µM, first compound 1 µM
[17] = second compound 0.0003 µM, first compound 3.16 µM
[18] = second compound 0.0003 µM, first compound 10 µM
[19] = second compound 0.000949 µM, first compound 0.0316 µM
[20] = second compound 0.000949 µM, first compound 0.1 µM
[21] = second compound 0.000949 µM, first compound 0.316 µM
[22] = second compound 0.000949 µM, first compound 1 µM
[23] = second compound 0.000949 µM, first compound 3.16 µM
[24] = second compound 0.000949 µM, first compound 10 µM
[25] = second compound 0.003 µM, first compound 0.0316 µM
[26] = second compound 0.003 µM, first compound 0.1 µM
[27] = second compound 0.003 µM, first compound 0.316 µM
[28] = second compound 0.003 µM, first compound 1 µM
[29] = second compound 0.003 µM, first compound 3.16 µM
[30] = second compound 0.003 µM, first compound 10 µM

| SMILES | IC50 (second compound 30 pM) [µM] | IC50 (second compound 94.9 pM) [µM] | IC50 (second compound 0.0003 µM) [µM] | IC50 (second compound 0.000949 µM) [µM] | IC50 (second compound 0.003 µM) [µM] | viability, T/C [1] [%] | viability, T/C [2] [%] | viability, T/C [3] [%] | viability, T/C [4] [%] | viability, T/C [5] [%] | viability, T/C [6] [%] | viability, T/C [7] [%] | viability, T/C [8] [%] | viability, T/C [9] [%] | viability, T/C [10] [%] | viability, T/C [11] [%] | viability, T/C [12] [%] | viability, T/C [13] [%] | viability, T/C [14] [%] | viability, T/C [15] [%] | other results |
| --- | --- | --- | --- | --- | --- | --- | --- | --- | --- | --- | --- | --- | --- | --- | --- | --- | --- | --- | --- | --- | --- |
| CC(C)n1c(=O)n(C)c2cnc3cc(F)c(-c4ccc(OCCCN5CCCCC5)nc4)cc3c21 + COc1cc2c(cc1O)CCNC21CSC2c3c(OC(C)=O)c(C)c4c(c3C(COC1=O)N1C(O)C3Cc5cc(C)c(OC)c(O)c5C(C21)N3C)OCO4 | > 10 | < 0.0316 | < 0.0316 | < 0.0316 | < 0.0316 | 90.9 | 86.2 | 85.7 | 71.2 | 74.3 | 98.8 | 40.8 | 60.5 | 45.5 | 47.9 | 36.5 | 43.7 | 30.1 | 5.76 | 27.8 | viability, T/C [16]: 8.34%; viability, T/C [17]: 8.82%; viability, T/C [18]: 5.34%; viability, T/C [19]: 6.42%; viability, T/C [20]: 7.84%; viability, T/C [21]: 6.99%; viability, T/C [22]: 6.68%; viability, T/C [23]: 5.62%; viability, T/C [24]: 4.34%; viability, T/C [25]: 0.61%; viability, T/C [26]: 1.06%; viability, T/C [27]: 0.76%; viability, T/C [28]: 0.52%; viability, T/C [29]: 0.99%; viability, T/C [30]: 0.68% |
| CC1COCCN1c1cc(-c2ccnn2C)c2ccnc(-c3ccn[nH]3)c2n1 (stereo not given) + COc1cc2c(cc1O)CCNC21CSC2c3c(OC(C)=O)c(C)c4c(c3C(COC1=O)N1C(O)C3Cc5cc(C)c(OC)c(O)c5C(C21)N3C)OCO4 | < 0.0316 | < 0.0316 | < 0.0316 | < 0.0316 | < 0.0316 | 29 | 19.2 | 16.2 | 9.83 | 8.37 | 11 | 13.6 | 7.91 | 7.75 | 7.08 | 6.07 | 10.4 | 7.42 | 7.97 | 6.18 | viability, T/C [16]: 5.64%; viability, T/C [17]: 6.36%; viability, T/C [18]: 9.31%; viability, T/C [19]: 7.59%; viability, T/C [20]: 7.35%; viability, T/C [21]: 6.11%; viability, T/C [22]: 3.98%; viability, T/C [23]: 3.9%; viability, T/C [24]: 3.4%; viability, T/C [25]: 0.28%; viability, T/C [26]: 0.46%; viability, T/C [27]: 0.86%; viability, T/C [28]: 1.82%; viability, T/C [29]: 0.25%; viability, T/C [30]: 0.52% |
| COc1cc(C)[nH]c(=O)c1CN1CCc2c(Cl)cc(C(OC)C3COC3)c(Cl)c2C1=O (stereo not given) + COc1cc2c(cc1O)CCNC21CSC2c3c(OC(C)=O)c(C)c4c(c3C(COC1=O)N1C(O)C3Cc5cc(C)c(OC)c(O)c5C(C21)N3C)OCO4 | > 10 | < 0.0316 | < 0.0316 | < 0.0316 | < 0.0316 | 91.6 | 85 | 88.3 | 95.7 | 90.9 | 82.9 | 39.9 | 42.6 | 43.9 | 31.1 | 32.4 | 50.6 | 13.2 | 6.14 | 8.15 | viability, T/C [16]: 5.96%; viability, T/C [17]: 6.6%; viability, T/C [18]: 7.13%; viability, T/C [19]: 6.97%; viability, T/C [20]: 6.88%; viability, T/C [21]: 8.11%; viability, T/C [22]: 6.65%; viability, T/C [23]: 6.56%; viability, T/C [24]: 6.23%; viability, T/C [25]: 0.23%; viability, T/C [26]: 0.35%; viability, T/C [27]: 0.34%; viability, T/C [28]: 0.86%; viability, T/C [29]: 0.34%; viability, T/C [30]: 0.93% |
| COc1ccc([C@@H](O)c2cc(-c3ncnc4cc(N5CCOCC5)ccc34)c(F)cc2Cl)nn1 + COc1cc2c(cc1O)CCNC21CSC2c3c(OC(C)=O)c(C)c4c(c3C(COC1=O)N1C(O)C3Cc5cc(C)c(OC)c(O)c5C(C21)N3C)OCO4 | 1.11 | < 0.0316 | < 0.0316 | < 0.0316 | < 0.0316 | 81.5 | 100 | 75.2 | 52.4 | 22 | 3.59 | 49.7 | 25.2 | 44 | 27.7 | 8.27 | 3 | 13.6 | 8.22 | 10.1 | viability, T/C [16]: 6.05%; viability, T/C [17]: 3.35%; viability, T/C [18]: 1.11%; viability, T/C [19]: 8.53%; viability, T/C [20]: 8.3%; viability, T/C [21]: 7.46%; viability, T/C [22]: 4.41%; viability, T/C [23]: 1.46%; viability, T/C [24]: 0.7%; viability, T/C [25]: 0.57%; viability, T/C [26]: 0.58%; viability, T/C [27]: 0.46%; viability, T/C [28]: 0.68%; viability, T/C [29]: 0.54%; viability, T/C [30]: 0.45% |
| Cc1cc(C)c(CNC(=O)c2cc(-c3ccc(CN4CCOCC4)cc3)cc3c2cnn3C2CCCC2)c(=O)[nH]1 + COc1cc2c(cc1O)CCNC21CSC2c3c(OC(C)=O)c(C)c4c(c3C(COC1=O)N1C(O)C3Cc5cc(C)c(OC)c(O)c5C(C21)N3C)OCO4 | > 10 | < 0.0316 | < 0.0316 | < 0.0316 | < 0.0316 | 90.3 | 100 | 92.1 | 78.7 | 83.1 | 56.2 | 24 | 26.2 | 37.6 | 25.5 | 40.4 | 32.2 | 6.57 | 8.67 | 7.48 | viability, T/C [16]: 8.65%; viability, T/C [17]: 11.9%; viability, T/C [18]: 6.02%; viability, T/C [19]: 6.46%; viability, T/C [20]: 7.33%; viability, T/C [21]: 6.11%; viability, T/C [22]: 6.61%; viability, T/C [23]: 7.09%; viability, T/C [24]: 4.83%; viability, T/C [25]: 0.34%; viability, T/C [26]: 0.8%; viability, T/C [27]: 0.7%; viability, T/C [28]: 1.08%; viability, T/C [29]: 0.44%; viability, T/C [30]: 0.8% |
| [2H]c1nc(C)nc([2H])c1-c1cc(NC[C@@H](C)c2cccc3c(C(=O)NC)ccnc23)ncn1 + COc1cc2c(cc1O)CCNC21CSC2c3c(OC(C)=O)c(C)c4c(c3C(COC1=O)N1C(O)C3Cc5cc(C)c(OC)c(O)c5C(C21)N3C)OCO4 | > 10 | < 0.0316 | < 0.0316 | < 0.0316 | < 0.0316 | 89.5 | 82.5 | 71.9 | 66.6 | 76.8 | 79.7 | 20.4 | 32.3 | 38.6 | 28.9 | 22.1 | 29.2 | 6.45 | 6.02 | 6.77 | viability, T/C [16]: 8.36%; viability, T/C [17]: 6.88%; viability, T/C [18]: 7.14%; viability, T/C [19]: 7.69%; viability, T/C [20]: 7.59%; viability, T/C [21]: 6.74%; viability, T/C [22]: 6.63%; viability, T/C [23]: 6.53%; viability, T/C [24]: 7.49%; viability, T/C [25]: 0.31%; viability, T/C [26]: 0.58%; viability, T/C [27]: 0.16%; viability, T/C [28]: 0.86%; viability, T/C [29]: 0.13%; viability, T/C [30]: 0.24% |
